{"source": "ChEMBL document CHEMBL3044876", "about": "“The sodium channel gene in Tetranychus cinnabarinus (Boisduval): identification and expression analysis of a mutation associated with pyrethroid resistance” (2011)", "assay_type_in_all_cases": "functional", "key": {"Tetranychus cinnabarinus [1]": {"tested_on": "Tetranychus cinnabarinus", "experiment": "Resistance ratio, LC50 for insecticidal activity against compound resistant Tetranychus cinnabarinus (carmine spider mite) in presence of piperonyl butoxide (PBO), diethyl maleate (DEM) and triphenyl phosphate (TPP) to LC50 for insecticidal activity against compound susceptible Tetranychus cinnabarinus in presence of piperonyl butoxide (PBO), diethyl maleate (DEM) and triphenyl phosphate (TPP)"}, "Tetranychus cinnabarinus [2]": {"tested_on": "Tetranychus cinnabarinus", "experiment": "Insecticidal activity against compound susceptible Tetranychus cinnabarinus (carmine spider mite)"}, "Tetranychus cinnabarinus [3]": {"tested_on": "Tetranychus cinnabarinus", "experiment": "Insecticidal activity against compound resistant Tetranychus cinnabarinus (carmine spider mite) in presence of piperonyl butoxide (PBO), diethyl maleate (DEM) and triphenyl phosphate (TPP)"}, "Tetranychus cinnabarinus [4]": {"tested_on": "Tetranychus cinnabarinus", "experiment": "Synergism ratio, LC50 for insecticidal activity against compound resistant Tetranychus cinnabarinus (carmine spider mite) to LC50 for insecticidal activity against compound resistant Tetranychus cinnabarinus in presence of piperonyl butoxide (PBO), diethyl maleate (DEM) and triphenyl phosphate (TPP)"}}}
{"smiles": "CC1(C)C(C(=O)OC(C#N)c2cccc(Oc3ccccc3)c2)C1(C)C", "note": "(centres undefined) [FENPROPATHRIN]", "values": [{"measurement": "Ratio", "setting": "Tetranychus cinnabarinus [1]", "value": 98.5}, {"measurement": "LC50", "setting": "Tetranychus cinnabarinus [2]", "value": 0.714, "unit": "mg/mL"}, {"measurement": "LC50", "setting": "Tetranychus cinnabarinus [3]", "value": 70.3, "unit": "mg/mL"}, {"measurement": "Ratio", "setting": "Tetranychus cinnabarinus [4]", "value": 1}]}
